The structures appear in SMILES notation.

The target of test [1] is eeAChE (Electrophorus electricus, UniProt O42275). The test can be described thus: AChE inhibition, Ellman's assay. It counts as biochemical. For orientation: DTNB colorimetry detects thiols as they appear.
In test [2] the target is eqBuChE (Equus caballus, UniProt P81908). Kind of test: BuChE inhibition, Ellman's assay. It counts as biochemical, equine. The settings on record: for IC50: IC50 ± SD eqBuChE; for SI: Selectivity Index, eeAChE and eqBuChE.
eqBuChE, sequence (P81908 whole entry): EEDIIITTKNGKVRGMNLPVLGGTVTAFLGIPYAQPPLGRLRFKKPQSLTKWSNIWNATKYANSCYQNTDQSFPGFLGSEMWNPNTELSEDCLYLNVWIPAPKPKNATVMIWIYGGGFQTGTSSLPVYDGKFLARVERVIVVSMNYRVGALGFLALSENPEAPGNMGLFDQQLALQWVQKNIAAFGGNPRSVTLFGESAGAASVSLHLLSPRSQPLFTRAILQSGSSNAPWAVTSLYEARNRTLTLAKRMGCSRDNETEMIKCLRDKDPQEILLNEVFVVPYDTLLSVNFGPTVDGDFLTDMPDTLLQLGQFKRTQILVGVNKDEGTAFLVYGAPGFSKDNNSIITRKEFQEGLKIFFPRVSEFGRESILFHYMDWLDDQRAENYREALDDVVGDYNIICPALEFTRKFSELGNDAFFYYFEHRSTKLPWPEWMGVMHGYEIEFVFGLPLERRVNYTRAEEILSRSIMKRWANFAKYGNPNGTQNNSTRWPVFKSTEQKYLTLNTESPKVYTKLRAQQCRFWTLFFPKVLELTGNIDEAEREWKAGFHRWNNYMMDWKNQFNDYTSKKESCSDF
The target of test [3] is huAChE (Homo sapiens, UniProt P22303). Kind of test: AChE inhibition, Ellman's assay. It counts as biochemical.
huAChE, sequence (P22303 32-617 isoform P22303-2 limits assumed): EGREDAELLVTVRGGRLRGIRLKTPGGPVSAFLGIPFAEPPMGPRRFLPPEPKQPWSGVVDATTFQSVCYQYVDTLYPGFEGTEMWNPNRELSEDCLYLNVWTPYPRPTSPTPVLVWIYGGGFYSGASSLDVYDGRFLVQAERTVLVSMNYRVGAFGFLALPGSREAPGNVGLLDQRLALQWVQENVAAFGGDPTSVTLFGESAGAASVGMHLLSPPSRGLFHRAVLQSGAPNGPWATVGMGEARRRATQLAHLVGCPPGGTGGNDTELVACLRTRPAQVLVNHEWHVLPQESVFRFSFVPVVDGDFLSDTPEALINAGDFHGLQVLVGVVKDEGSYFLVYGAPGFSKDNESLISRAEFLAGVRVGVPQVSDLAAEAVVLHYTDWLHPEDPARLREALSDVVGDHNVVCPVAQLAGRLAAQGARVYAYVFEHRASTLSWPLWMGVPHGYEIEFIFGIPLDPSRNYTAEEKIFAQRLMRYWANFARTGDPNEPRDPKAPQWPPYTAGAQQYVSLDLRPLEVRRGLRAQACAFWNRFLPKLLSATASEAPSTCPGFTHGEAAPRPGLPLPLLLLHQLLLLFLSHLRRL
In test [4] the target is huBuChE (Homo sapiens, UniProt P06276). Kind of test: BuChE inhibition, Ellman's assay. It counts as biochemical. The settings on record: for SI: Selectivity Index, huAChE and huBuChE.
huBuChE, sequence (P06276 29-602): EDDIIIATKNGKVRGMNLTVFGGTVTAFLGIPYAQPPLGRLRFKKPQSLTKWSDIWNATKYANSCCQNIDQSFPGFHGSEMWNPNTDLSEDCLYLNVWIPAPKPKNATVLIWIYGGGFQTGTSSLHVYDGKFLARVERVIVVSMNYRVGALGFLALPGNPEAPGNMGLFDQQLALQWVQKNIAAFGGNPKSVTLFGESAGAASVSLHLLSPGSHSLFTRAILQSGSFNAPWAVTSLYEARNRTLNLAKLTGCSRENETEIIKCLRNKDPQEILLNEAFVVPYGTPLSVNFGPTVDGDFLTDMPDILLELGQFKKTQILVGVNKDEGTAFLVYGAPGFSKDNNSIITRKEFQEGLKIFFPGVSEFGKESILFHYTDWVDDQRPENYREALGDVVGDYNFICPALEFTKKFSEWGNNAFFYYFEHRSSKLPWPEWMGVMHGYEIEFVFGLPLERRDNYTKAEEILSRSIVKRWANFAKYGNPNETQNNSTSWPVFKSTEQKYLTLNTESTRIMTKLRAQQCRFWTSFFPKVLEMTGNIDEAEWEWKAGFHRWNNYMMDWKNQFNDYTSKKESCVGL
Test [5] deals with BuChE. The test can be described thus: Reversibility of BuChE inhibition. It counts as biochemical. The settings on record: 0.1 × IC50, 120 min.
In test [6] the test system is AlCl3-induced zebrafish AD model. The test can be described thus: AlCl3-induced zebrafish AD model. It counts as in vivo. The settings on record: donepezil 3.0 μg/mL.
Test [7] relates to scopolamine-induced mice. The test can be described thus: Scopolamine-induced mice dysmnesia, step-down passive avoidance task. It counts as in vivo, Kunming mice.
The test system of test [8] is APP/PS1 double-transgenic mice. Kind of test: APP/PS1 mice, Morris Water Maze and tissue analyses. It counts as in vivo.
[9] abbreviates: plasma, donepezil 2.0 mg/kg, 8e 2.6 mg/kg.

eeAChE, sequence (O42275 24-633): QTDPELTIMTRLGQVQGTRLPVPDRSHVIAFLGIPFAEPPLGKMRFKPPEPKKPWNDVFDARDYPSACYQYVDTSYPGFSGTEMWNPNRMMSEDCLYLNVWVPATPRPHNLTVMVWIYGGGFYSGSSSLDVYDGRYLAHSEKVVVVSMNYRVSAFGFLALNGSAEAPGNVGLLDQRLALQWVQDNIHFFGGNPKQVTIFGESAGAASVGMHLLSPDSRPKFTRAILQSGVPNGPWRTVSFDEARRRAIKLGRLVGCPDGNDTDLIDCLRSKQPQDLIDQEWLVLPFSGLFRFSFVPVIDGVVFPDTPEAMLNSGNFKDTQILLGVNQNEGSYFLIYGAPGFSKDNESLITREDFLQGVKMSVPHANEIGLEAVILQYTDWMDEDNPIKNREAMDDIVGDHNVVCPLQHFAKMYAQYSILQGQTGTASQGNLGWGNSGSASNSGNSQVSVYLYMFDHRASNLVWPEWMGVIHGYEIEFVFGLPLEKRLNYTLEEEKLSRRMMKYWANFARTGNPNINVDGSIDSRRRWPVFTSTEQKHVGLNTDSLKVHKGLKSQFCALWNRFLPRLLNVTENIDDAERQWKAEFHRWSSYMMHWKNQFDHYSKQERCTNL

Compound `CCN(CC)CCCCOc1ccc(CCC(=O)N2CCC(Cc3ccccc3)CC2)cc1OC` [8f] displayed an IC50 in test [1] of 8.4 ± 0.53 µM. In test [2], this compound displayed an IC50 of 0.28 ± 0.02 µM and an SI of 30.
For the compound `CCN(CCOc1ccc(CCC(=O)N2CCC(Cc3ccccc3)CC2)cc1OC)Cc1ccccc1` [10a], the IC50 was 3.6 ± 0.02 µM in test [1] and 0.22 ± 0.03 µM in test [2]. The SI in test [2] was found to be 16.
Turning to `COc1cc(CCC(=O)N2CCC(Cc3ccccc3)CC2)ccc1OCCCCN1CCC(c2ccccc2)CC1` [8h], the half-inhibitory concentration (IC50) in test [1] worked out at 4.7 ± 0.28 µM; in test [2] it was 0.13 ± 0.08 µM; in test [3], 6.9 ± 0.14 µM; in test [4], 0.19 ± 0.19 µM. In addition, the SI in test [2] and in test [4] was 36 each time.
Turning to `COc1cc(CCC(=O)N2CCC(Cc3ccccc3)CC2)ccc1OCCCCN1CCN(Cc2ccccc2)CC1` [8b], the IC50 came to 5.8 ± 0.35 µM in test [1] and 3.3 ± 0.13 µM in test [2]. The compound also displayed an SI in test [2] of 1.8.
For `COc1cc(CCC(=O)N2CCC(Cc3ccccc3)CC2)ccc1OC(=O)CCCCN1CCC(CCCc2ccccc2)CC1` [9c], in that order: 8.1 ± 0.43 µM, 0.73 ± 0.23 µM and 11.
On the same counts, the results for `COc1cc(CCC(=O)N2CCC(Cc3ccccc3)CC2)ccc1OCCCCN1CCC(c2noc3ccccc23)CC1` [8k] are 5.5 ± 0.23 µM, 0.25 ± 0.02 µM and 22.
As to `COc1cc(CCC(=O)N2CCC(Cc3ccccc3)CC2)ccc1OCCCCN1CCC(C(=O)c2ccc(F)cc2)CC1` [8j], the IC50 in test [1] is 4.9 ± 0.18 µM. In test [2], this compound gave an IC50 of 0.31 ± 0.12 µM and an SI of 16.
On the same counts, the results for `CCN(CCCCCCCCCOc1ccc(CCC(=O)N2CCC(Cc3ccccc3)CC2)cc1OC)Cc1ccccc1` [10e] are 8.4 ± 0.53 µM, 0.28 ± 0.02 µM and 30.
On the same counts, the results for `CCN(CCCCCCOc1ccc(CCC(=O)N2CCC(Cc3ccccc3)CC2)cc1OC)Cc1ccccc1` [10d] are 4.6 ± 0.03 µM, 0.12 ± 0.003 µM and 38.
With `CCN(CCCCCOc1ccc(CCC(=O)N2CCC(Cc3ccccc3)CC2)cc1OC)Cc1ccccc1` [10c], the IC50 amounted to 6.2 ± 0.12 µM in test [1], 0.077 ± 0.002 µM in test [2], 8.6 ± 0.33 µM in test [3] and 0.11 µM in test [4]. Further, the SI in test [2] is 81; in test [4], 78.
Regarding `CCN(C)C(=O)Oc1cccc([C@H](C)N(C)C)c1` [Rivastigmine], in test [5], the “recovery of BuChE activity / reversibility” value was “remained relatively unchanged”.
`COc1cc2c(cc1OC)C(=O)C(CC1CCN(Cc3ccccc3)CC1)C2` (stereo not shown) [Donepezil]: the “number of apoptotic cells” value in test [6] (HE staining, 8e 0.1, 0.25, and 0.5 μg/mL) was “significantly reduced”. The swimming distance/swimming speed result in test [6] (8e 0.1 and 0.25 μg/mL) is listed as “significantly increased”. Also, in test [6] (8e 0.1 and 0.25 μg/mL, transition from dark to light), the reaction capacity result is given as “significantly enhanced”. Besides, in test [7] (5.0 mg/kg), the latency time is recorded as 163.87 s and the number of errors turned out to be 0.1. The “neuronal apoptosis in the hippocampus” value in test [7] (TUNEL staining, donepezil 5.0 mg/kg, 8e 6.5 mg/kg) is “significantly reduced”. Also, the “levels of IL-1β, IL-6, and TNF-α in the cerebral cortex” value in test [7] (immunohistochemistry, donepezil 5.0 mg/kg, 8e 6.5 mg/kg) is given as “significant reduction”. Further, in test [8] (ELISA, cerebral cortex), the ACh levels result is on record as “remarkable increase”, the “Aβ1–42 levels” value is on record as “significantly reduced”, the IL-1β levels entry was “significantly reduced” and the IL-6 levels entry is “significantly reduced”. The TNF-α levels result in test [8] (ELISA, cerebral cortex) is reported as “significantly reduced”. Besides, in test [8] (HE staining, donepezil 2 mg/kg, 8e 2.6 mg/kg), the “neuronal abnormalities within cerebral cortex and hippocampus” value is “marked decrease”. Besides, the escape latency result in test [8] (MWM, vs model group) is on record as “significantly decreased”. Besides, the “Aβ1–42 levels” value in test [8] (immunofluorescence staining, cerebral cortex, donepezil 2.0 mg/kg, 8e 2.6 mg/kg) is “significant reduction”. The TG levels result in test [8] (plasma) was “significant decrease”. Further, in test [8] (setting [9]), the LDL-c levels result was “significantly reduced” and the TC levels result was “significantly reduced”.
With `CCN(CC)CCCCOc1ccc(C(=O)N2CCC(Cc3ccccc3)CC2)cc1OC` [7f], half-maximal inhibition in test [1] (IC50) required 8.6 ± 0.32 µM. In test [2], the half-maximal inhibitory concentration (IC50) was found to be 6.4 ± 0.24 µM and the SI is 1.3.
On the same counts, the results for `COc1cc(C(=O)N2CCC(Cc3ccccc3)CC2)ccc1OCCCCN1CCC(Cc2ccccc2)CC1` [7a] are 5.9 ± 0.36 µM, 0.66 ± 0.03 µM and 8.9.
As to `COc1cc(CCC(=O)N2CCC(Cc3ccccc3)CC2)ccc1OCCCCN1CCc2ccccc2C1` [8d], the IC50 in test [1] is 6.2 ± 0.12 µM; in test [2], 0.087 ± 0.002 µM; in test [3] it was 8.6 ± 0.33 µM; in test [4], 0.097 µM. The SI in test [2] is on record as 71; in test [4] it was 89.
Regarding `COc1cc(C(=O)N2CCC(Cc3ccccc3)CC2)ccc1OCCCCN1CCc2ccccc2C1` [7d], in test [1], the IC50 was found to be 3.1 ± 0.15 µM. Further, in test [2], the IC50 is 0.85 ± 0.02 µM and the SI is 3.6.
On the same counts, the results for `COc1cc(CCC(=O)N2CCC(Cc3ccccc3)CC2)ccc1OC(=O)CCCCN1CCN(Cc2ccccc2)CC1` [9b] are 1.9 ± 0.11 µM, 1.7 ± 0.06 µM and 1.1.
For `CCN(CCCCOc1c(OC)cc(C(=O)N2CCN(c3ccc(F)cc3)CC2)cc1OC)Cc1ccccc1` [7j], in that order: 6.9 ± 0.04 µM, 6.3 ± 0.32 µM and 1.1.
In test [1], `COc1cc(CCC(=O)N2CCC(Cc3ccccc3)CC2)ccc1OCCCCN1CC(C)CC(C)C1` (stereo not shown) [8g] came in with an IC50 of 6.5 ± 0.33 µM. Also, in test [2], it took 0.75 ± 0.02 µM to reach half-maximal inhibition (IC50) and the SI turned out to be 8.7.
On the same counts, the results for `COc1cc(C(=O)N2CCC(Cc3ccccc3)CC2)ccc1OCCCCN1CCN(Cc2ccccc2)CC1` [7b] are 7.9 ± 0.25 µM, 3.1 ± 0.12 µM and 2.5.
For `CCN(CCCOc1ccc(CCC(=O)N2CCC(Cc3ccccc3)CC2)cc1OC)Cc1ccccc1` [10b], the IC50 in test [1] is 8.7 ± 0.01 µM; in test [2], 0.068 ± 0.005 µM; in test [3], 5.9 ± 0.26 µM; in test [4], 0.091 ± 0.008 µM. The values for the SI in test [2] and in test [4] were 128 and 65, respectively.
In test [1], `COc1cc(C(=O)N2CCC(Cc3ccccc3)CC2)ccc1OCCCCN1CCC(CCCc2ccccc2)CC1` [7c] yielded an IC50 of 3.4 ± 0.13 µM. In addition, in test [2], the IC50 was found to be 1.1 ± 0.06 µM and the SI is given as 3.1.
Regarding `COc1cc(CCC(=O)N2CCC(Cc3ccccc3)CC2)ccc1OCCCCN1CCC(Cc2ccccc2)CC1` [8a], the IC50 in test [1] was determined as 1.7 ± 0.01 µM; in test [2], 0.093 ± 0.005 µM; in test [3] it was 5.9 ± 0.26 µM; in test [4], 0.16 ± 0.43 µM. For the same compound, the SI worked out at 18 in test [2] and 37 in test [4].
On to `CCN(CCCCOc1ccc(C(=O)N2CCC(Cc3ccccc3)CC2)cc1OC)Cc1ccccc1` [7e], for which the IC50 in test [1] was 2.8 ± 0.13 µM; in test [2], 0.47 ± 0.05 µM; in test [3] it was 3.9 ± 0.44 µM; in test [4] it was 0.87 ± 0.23 µM. The SI in test [2] is 6.0; in test [4], 4.5.
`COc1cc(C(=O)N2CCC(Cc3ccccc3)CC2)ccc1OCCCCN1CC(C)CC(C)C1` (stereo not shown) [7g]: the IC50 in test [1] is 2.3 ± 0.12 µM; in test [2] it was 3.7 ± 0.24 µM. Also, the SI in test [2] was 0.6.
The compound `CCN(CCCCOc1c(OC)cc(C(=O)NC2CCN(Cc3ccccc3)CC2)cc1OC)Cc1ccccc1` [7i] came in with an IC50 in test [1] of 5.7 ± 0.03 µM. Besides, in test [2], the half-inhibitory concentration (IC50) amounted to 2.6 ± 0.12 µM and the SI came to 2.2.
On the same counts, the results for `COc1cc(CCC(=O)N2CCC(Cc3ccccc3)CC2)ccc1OC(=O)CCCCN1CCC(Cc2ccccc2)CC1` [9a] are 7.1 ± 0.15 µM, 0.82 ± 0.03 µM and 8.7.
As to `COc1cc(CCC(=O)N2CCC(Cc3ccccc3)CC2)ccc1OCCCCN1CCC(CCCc2ccccc2)CC1` [8c], the IC50 in test [1] worked out at 4.2 ± 0.26 µM; in test [2], 0.063 ± 0.005 µM; in test [3], 6.7 ± 0.16 µM; in test [4], 0.082 ± 0.007 µM. The SI came to 67 in test [2] and 82 in test [4].
With `CCN(CCCCCCCCCCOc1ccc(CCC(=O)N2CCC(Cc3ccccc3)CC2)cc1OC)Cc1ccccc1` [10f], the IC50 in test [1] was 4.7 ± 0.28 µM; in test [2] it was 0.59 ± 0.08 µM. The compound also registered an SI in test [2] of 8.0.

As usually defined, the IC50 is the midpoint of a concentration-inhibition curve.

Values taken from article PMC12138102 (Acta Pharmaceutica Sinica. B, 2025).
